{"source": "patent US6835551B2", "about": "“Basophil degranulation test” (Orpegen Pharma GmbH, priority 1999, dated 2004)", "tested_on": "basophilic granulocytes", "conditions": "fMLP 10^-7 M, 30 minutes at 37° C., typical values", "description": "Peripheral blood (heparinised) of the patient is incubated with various concentrations of the suspected allergen at 37° C. […] The detection is carried out by a three colour immunofluorescence and flow cytometric analysis. The chemotactic peptide fMLP serves as a positive control and a buffer solution (PBS) is used as the negative control.\nThe sample to be examined is divided into aliquots of 100 μl in each case. In the case of high leukocyte numbers (WBC of 10-20,000 C/μl) it is possible to use a smaller sample volume e.g. 50 μl. Multiple test mixtures are not necessary.\nALK-depot SQ (Scherax) mixture of 6 grasses+rye is used at concentrations of 10,000, 1,000, 100 and 10 U/ml. ALK-prick SQ (Scherax) bee venom and ALK-prick SQ (Scherax) wasp venom are used at concentrations of 10, 1, 0.1 and 0.01 μg/ml. Latex allergens, PPL (allergopen) and MDM (allergopen) are used in dilutions of 1:10, 1:100 and 1:1,000. Penicillin Grünenthal is used at concentrations of 100, 10, 1 and 0.1 μg/ml. PBS serves as a negative control and fMLP at a concentration of 10^−7 M (i.e. 1:2,000 PBS) is used as the positive control. A sample from a healthy normal test person is also assayed as a further control.\n100 μl of each of the allergen dilutions is added to an aliquot of the sample, mixed and incubated for 30 minutes at 37° C. in a water bath. Then the mixtures are placed on ice.\nThe following antibody solutions are then added.\na) 20 μl anti gp55-FITC (prediluted)\nb) 20 μl anti IgE-PE (prediluted)\nc) 10 μl anti CD45-cychrome or 20 μl CD45-PerCP\nAfter antibody addition it is well mixed (vortex) and incubated for 20 minutes on ice while protected from light.\n2 ml FACS lysing solution (erythrocyte lysis and leukocyte fixation) is then added, it is mixed (vortex) and incubated for 10 minutes at room temperature while protected from light. Subsequently it is centrifuged for 5 min at 1300 rpm or 300 g and decanted.\nThe cells are washed by adding 3 ml wash solution (PBS), centrifuging (5 min at 1300 rpm or 300 g) and decanting.\nThe sample is measured by flow cytometry for example on an FACS scan instrument. The stability of the measured sample is presumably ≧2 hours on flaked ice in the dark.\nIn the SSC/IgE dot plot, a region is set around the cells with low and high side scattered light and strong IgE expression. […] The markers are set such that the evaluation region covers the region of the gp55 positive basophils (the PBS test mixture serves as a negative control). The mean value FL1 is observed in all (also gp55-negative) cell populations. If possible, at least 1000 cells of the subclass of interest (in this case basophils) are recorded. […] It is therefore possible to view the percentage which is adequate for evaluating the test result."}
{"substance": "fMLP", "values": [{"measurement": "% basos", "setting": "heparinised whole blood", "result": 2.35, "unit": "%"}, {"measurement": "mean gp55", "setting": "mean FL1 of all basophils", "result": 369}, {"measurement": "mean CD45", "setting": "mean fluorescence (CD45 expression density) of basophils", "result": 349}, {"measurement": "mean IgE", "setting": "mean fluorescence (IgE density) of basophils", "result": 981}, {"measurement": "% gp55", "setting": "percentage of gp55-positive basophilic granulocytes", "result": 30.6, "unit": "%"}]}
